Test results published in PubChem BioAssay AID248 (DTP/NCI, 2004).
“And” between values parts separate entries of the source, which are not always exact repeats. Equal values may be shown once. Toxic doses and inconclusive results are not listed. Cut-off read from the data, not from the text of the source: active = T/C of 150% or more; inactive = T/C below 125%.

Tested on: L1210 leukemia ip in BDF1 mice, survival T/C
Experiment: NCI In Vivo Anticancer Drug Screen. Data for tumor model L1210 Leukemia (intraperitoneal) in B6D2F1 (BDF1) mice
Settings: endpoint: mean survival time, higher = longer survival
Procedure, shortened: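 Tumor was transplanted into mice, which were then dosed with test compound or vehicle alone. Survival was recorded for each group, and the treated figure was expressed relative to the control figure.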

[1] = dose: 50.0 mg/kg/injection, schedule: Q01DX001 (ip), vehicle: Klucel (hydroxypropylcellulose) (HPC)
[2] = dose: 100.0 mg/kg/injection, schedule: Q01DX001 (ip), vehicle: Klucel (hydroxypropylcellulose) (HPC)
[3] = dose: 200.0 mg/kg/injection, schedule: Q01DX001 (ip), vehicle: Klucel (hydroxypropylcellulose) (HPC)
[4] = dose: 100.0 mg/kg/injection, schedule: Q04DX003 (ip), vehicle: Klucel (hydroxypropylcellulose) (HPC)
[5] = dose: 200.0 mg/kg/injection, schedule: Q04DX003 (ip), vehicle: Klucel (hydroxypropylcellulose) (HPC)
[6] = dose: 400.0 mg/kg/injection, schedule: Q04DX003 (ip), vehicle: Klucel (hydroxypropylcellulose) (HPC)
[7] = dose: 100.0 mg/kg/injection, schedule: Q04DX003 (ip), vehicle: saline
[8] = dose: 200.0 mg/kg/injection, schedule: Q04DX003 (ip), vehicle: saline
[9] = dose: 400.0 mg/kg/injection, schedule: Q04DX003 (ip), vehicle: saline

Measured: T/C

C=C(C)Cc1cnc(SC)[nH]c1=O
inactive: [1] 98 % of control | [2] 100 % of control | [3] 98 % of control

O=C(OC(=O)c1cccc(-c2ccccc2)c1)c1cccc(-c2ccccc2)c1
inactive: [4] 104 % of control | [5] 101 % of control | [6] 96 % of control

CCCC(C)(COC(N)=O)COC(=O)NC(C)C (stereo not drawn)
inactive: dose: 25.0 mg/kg/injection, schedule: Q01DX009 (ip), vehicle: Klucel (hydroxypropylcellulose) (HPC) 102 % of control | dose: 25.0 mg/kg/injection, schedule: Q04DX003 (ip), vehicle: Klucel (hydroxypropylcellulose) (HPC) 101 % of control | dose: 50.0 mg/kg/injection, schedule: Q01DX009 (ip), vehicle: Klucel (hydroxypropylcellulose) (HPC) 97 % of control | dose: 50.0 mg/kg/injection, schedule: Q04DX003 (ip), vehicle: Klucel (hydroxypropylcellulose) (HPC) 92 % of control | dose: 100.0 mg/kg/injection, schedule: Q01DX009 (ip), vehicle: Klucel (hydroxypropylcellulose) (HPC) 94 % of control | [4] 101 % of control | dose: 200.0 mg/kg/injection, schedule: Q01DX009 (ip), vehicle: Klucel (hydroxypropylcellulose) (HPC) 97 % of control | [5] 95 % of control | dose: 400.0 mg/kg/injection, schedule: Q01DX009 (ip), vehicle: Klucel (hydroxypropylcellulose) (HPC) 88 % of control | [6] 101 % of control

CC1CCCCC12C(=O)NC(=S)NC2=O (stereo not drawn)
inactive: dose: 75.0 mg/kg/injection, schedule: Q01DX001 (ip), vehicle: other 112 % of control | dose: 150.0 mg/kg/injection, schedule: Q01DX001 (ip), vehicle: other 98 % of control | dose: 300.0 mg/kg/injection, schedule: Q01DX001 (ip), vehicle: other 101 % of control

CCOC(=O)c1cc(=O)n(-c2ccc([N+](=O)[O-])cc2)n1C
inactive: dose: 100.0 mg/kg/injection, schedule: Q04DX003 (ip), vehicle: saline with Tween-80 94 % of control | dose: 200.0 mg/kg/injection, schedule: Q04DX003 (ip), vehicle: saline with Tween-80 92 % of control | dose: 400.0 mg/kg/injection, schedule: Q04DX003 (ip), vehicle: saline with Tween-80 94 % of control

C#CCN(CC#C)c1ccccc1
inactive: dose: 100.0 mg/kg/injection, schedule: Q04DX002 (ip), vehicle: saline with Tween-80 100 % of control | dose: 200.0 mg/kg/injection, schedule: Q04DX002 (ip), vehicle: saline with Tween-80 93 % of control | dose: 400.0 mg/kg/injection, schedule: Q04DX002 (ip), vehicle: saline with Tween-80 97 % of control

CCC(=O)C(CC)c1ccccc1OC (stereo not drawn)
inactive: dose: 100.0 mg/kg/injection, schedule: Q01DX009 (ip), vehicle: saline with Tween-80 95 % of control | [7] 94 % of control | dose: 200.0 mg/kg/injection, schedule: Q01DX009 (ip), vehicle: saline with Tween-80 95 % of control | [8] 97 % of control | dose: 400.0 mg/kg/injection, schedule: Q01DX009 (ip), vehicle: saline with Tween-80 108 % of control | [9] 97 % of control

O=C(OCc1ccccc1CN1CCCC1)c1cccc(Cl)c1
inactive: [2] 102 % of control | [3] 117 % of control

CC(C)(C)C(=O)[CH-]C(=O)C(C)(C)C.CC(C)(C)C(=O)[CH-]C(=O)C(C)(C)C.CC(C)(C)C(=O)[CH-]C(=O)C(C)(C)C.CS(C)=O.[Er+3]
inactive: [2] 98 % of control | [4] 103 % of control | [3] 101 % of control | [5] 98 % of control | dose: 400.0 mg/kg/injection, schedule: Q01DX001 (ip), vehicle: Klucel (hydroxypropylcellulose) (HPC) 96 % of control | [6] 103 % of control

Clc1ccc(Nc2cc[n+]3ccccc3c2)cc1Cl
inactive: dose: 25.0 mg/kg/injection, schedule: Q01DX001 (ip), vehicle: Klucel (hydroxypropylcellulose) (HPC) 98 % of control | [1] 96 % of control | [2] 102 % of control and 117 % of control

COC1OC(CCl)C(Cl)CC1OC(C)=O (stereo not drawn)
inactive: [7] 95 % of control | [8] 90 % of control | [9] 98 % of control

CC(C)NCC(C#N)C1CCCCC1 (stereo not drawn)
inactive: dose: 100.0 mg/kg/injection, schedule: Q01DX001 (ip), vehicle: saline with Tween-80 97 % of control | dose: 200.0 mg/kg/injection, schedule: Q01DX001 (ip), vehicle: saline with Tween-80 93 % of control | dose: 400.0 mg/kg/injection, schedule: Q01DX001 (ip), vehicle: saline with Tween-80 97 % of control
